Key:
Assay type in all cases: functional
Papiliotrema laurentii [1] = experiment: Antimycotic activity against Cryptococcus laurentii DBVPG 4272 by agar diffusion disk bioassay
Candida albicans [2] = experiment: Antimycotic activity against Candida albicans DBVPG 6133 by agar diffusion disk bioassay
Papiliotrema laurentii [3] = experiment: Antimycotic activity against Cryptococcus laurentii DBVPG 6265 by agar diffusion disk bioassay
Saccharomyces cerevisiae [4] = experiment: Antimycotic activity against Saccharomyces cerevisiae DBVPG 6500 by agar diffusion disk bioassay
Saccharomyces cerevisiae [5] = experiment: Antimycotic activity against Saccharomyces cerevisiae DBVPG 6173 by agar diffusion disk bioassay
Kluyveromyces marxianus = experiment: Antimycotic activity against Kluyveromyces marxianus DBVPG 6141 by agar diffusion disk bioassay
Candida albicans [6] = experiment: Antimycotic activity against Candida albicans DBVPG 6157 by agar diffusion disk bioassay
Clavispora lusitaniae = experiment: Antimycotic activity against Clavispora lusitaniae DBVPG 6142 by agar diffusion disk bioassay
Papiliotrema laurentii [7] = experiment: Antimycotic activity against Cryptococcus laurentii DBVPG 3883 by agar diffusion disk bioassay
Prototheca wickerhamii = experiment: Antimycotic activity against Prototheca wickerhamii DBVPG 8879 by agar diffusion disk bioassay
Cryptococcus neoformans [8] = experiment: Antimycotic activity against Filobasidiella neoformans DBVPG 6982 by agar diffusion disk bioassay
Cryptococcus neoformans [9] = experiment: Antimycotic activity against Filobasidiella neoformans DBVPG 6981 by agar diffusion disk bioassay
Cryptococcus neoformans [10] = experiment: Antimycotic activity against Filobasidiella neoformans DBVPG 3428 by agar diffusion disk bioassay
Cryptococcus neoformans [11] = experiment: Antimycotic activity against Filobasidiella neoformans DBVPG 6010 by agar diffusion disk bioassay
Yarrowia lipolytica = experiment: Antimycotic activity against Yarrowia lipolytica DBVPG 6053 by agar diffusion disk bioassay
Cryptococcus neoformans [12] = experiment: Antimycotic activity against Filobasidiella neoformans DBVPG 6225 by agar diffusion disk bioassay
[13] = system: Meyerozyma guilliermondii; experiment: Antimycotic activity against Pichia guilliermondii DBVPG 6140 by agar diffusion disk bioassay
Candida tropicalis = experiment: Antimycotic activity against Candida tropicalis DBVPG 3982 by agar diffusion disk bioassay
Nakaseomyces glabratus = experiment: Antimycotic activity against Candida glabrata DBVPG 7212 by agar diffusion disk bioassay
[Candida] zeylanoides = Antimycotic activity against Candida zeylanoides DBVPG 6163 by agar diffusion disk bioassay
Pichia kudriavzevii = experiment: Antimycotic activity against Issatchenkia orientalis DBVPG 6782 by agar diffusion disk bioassay

SMILES | inhibition zone (IZ) (Papiliotrema laurentii [1]) | inhibition zone (IZ) (Candida albicans [2]) | inhibition zone (IZ) (Papiliotrema laurentii [3]) | inhibition zone (IZ) (Saccharomyces cerevisiae [4]) | inhibition zone (IZ) (Saccharomyces cerevisiae [5]) | inhibition zone (IZ) (Candida albicans [6]) | inhibition zone (IZ) (Clavispora lusitaniae) | inhibition zone (IZ) (Papiliotrema laurentii [7]) | inhibition zone (IZ) (Prototheca wickerhamii) | inhibition zone (IZ) (Cryptococcus neoformans [9]) | inhibition zone (IZ) (Cryptococcus neoformans [10]) | inhibition zone (IZ) (Cryptococcus neoformans [11]) | inhibition zone (IZ) (Yarrowia lipolytica) | inhibition zone (IZ) (Cryptococcus neoformans [12]) | also measured
COc1ccc(C2CSc3c(O)cc(O)cc3O2)cc1 (stereo not given) | 17.5 mm | 12.4 mm | 13.3 mm | 14.7 mm | 15.1 mm |  |  |  |  |  |  |  |  |  | 
COc1cc(OC)c2c(c1)OC(c1ccc(O)c(O)c1)CS2 (stereo not given) | 19.3 mm |  | 2.6 mm | 14.9 mm | 14.6 mm | 12.1 mm | 13.9 mm | 13.1 mm | 14.5 mm |  |  |  |  |  | inhibition zone (IZ) (Kluyveromyces marxianus): 14.9 mm
COc1ccc(C2CSc3ccc(O)cc3O2)cc1 (stereo not given) | 26.4 mm |  | 16.8 mm | 20.6 mm |  | 14.1 mm |  |  |  | 14.2 mm | 14.6 mm | 18.1 mm | 15.6 mm | 14.9 mm | inhibition zone (IZ) (Cryptococcus neoformans [8]): 12.9 mm
COc1ccc(C2CSc3cc(O)ccc3O2)cc1 (stereo not given) | 22 mm |  |  |  |  |  |  |  |  |  |  | 13.6 mm |  |  | 
Oc1ccc(C2CSc3ccc(O)cc3O2)cc1 (stereo not given) | 28.5 mm | 16.2 mm | 17.8 mm | 19.2 mm | 15.6 mm | 18.3 mm | 12.4 mm | 22.6 mm | 17.8 mm | 15.6 mm | 17.4 mm | 15.5 mm | 16.5 mm | 17 mm | inhibition zone (IZ) [13]: 17.2 mm; inhibition zone (IZ) (Candida tropicalis): 15.5 mm; inhibition zone (IZ) (Nakaseomyces glabratus): 13.1 mm; inhibition zone (IZ) ([Candida] zeylanoides): 16.4 mm; inhibition zone (IZ) (Pichia kudriavzevii): 14 mm
Oc1ccc(C2CSc3cc(O)ccc3O2)cc1 (stereo not given) | 16.4 mm |  | 16.9 mm |  | 15.2 mm |  | 12.9 mm | 13.8 mm |  |  |  | 15.5 mm | 14.3 mm | 11.2 mm | 
COc1ccc2c(c1)OC(c1ccc(O)cc1)CS2 (stereo not given) | 30.2 mm | 17.5 mm | 20.6 mm | 18.3 mm | 24.1 mm | 16.5 mm | 15.3 mm | 18.2 mm | 20.7 mm | 25.1 mm | 20 mm | 35.1 mm | 15.8 mm | 18.4 mm | inhibition zone (IZ) (Candida tropicalis): 20.2 mm; inhibition zone (IZ) ([Candida] zeylanoides): 19.4 mm; inhibition zone (IZ) (Pichia kudriavzevii): 17.6 mm

Reference: ChEMBL document CHEMBL1157448, “Antimycotic activity of 4-thioisosteres of flavonoids towards yeast and yeast-like microorganisms” (2008)
